# Source: PubChem BioAssay AID2305 (GlaxoSmithKline (GSK), 2010)
# Several values for one entry are separate records, joined by “and”; a condition that tells them apart may be missing. Identical values can stand only once.
# System: P. falciparum 3D7 growth, pLDH absorbance
# Experiment: P. falciparum 3D7 growth inhibition, dose response, strain 3D7 (AID 2305)
row,Compound,IC50
1,COc1cccc(C=NNc2cc(C)nc3c(OC)cccc23)c1,580 nM
2,O=S(=O)(Nc1ccc(-c2ccc(CN3CCCC3)cc2)cc1)c1cccc2cccnc12,1020 nM
3,CC(C)[C@H](NC(=O)c1ccc(O)c(-c2ccc(Cl)c(Cl)c2)c1)C(=O)NC1CCCCCC1,220 nM
4,O=c1[nH]ccc2nc(N[C@@H]3CCCNC3)nc(Nc3ccc(S(=O)(=O)N4CCOCC4)cc3)c12,740 nM
5,Cc1cccc2[nH]c(-c3cccc(-c4ccc(NC(=O)CS(C)(=O)=O)cc4)c3)nc12,1000 nM
6,Cc1ccc(NC(=O)c2ccc3ncccc3c2)cc1OC1CCN(Cc2ccsc2)CC1,930 nM
7,Nc1c2ccccc2nc2cc(Cl)ccc12,710 nM
8,Cc1cccc2[nH]c(-c3cccc(-c4ccc(NC(=O)c5cnccc5C(F)(F)F)cc4)c3)nc12,700 nM
9,CC(C)(C)c1ccc(NC(=O)c2cccc(CN3CCCN(Cc4cccc(C#N)c4)CC3)c2)cc1,760 nM
10,CCCCCC(C)N=C(Nc1ccc(C#N)cc1O)Nc1ccccc1Br (centres undefined),750 nM
11,COc1ccc2nccc([C@@H](O)CN3CCC(NCCOc4ccccc4C#N)CC3)c2c1,400 nM
12,Oc1ccc(CCNCCCCCCNCCc2ccc(-c3ccccc3)cc2)cc1O,600 nM
13,N#Cc1ccc(N(CCCO)Cc2ccccc2C(F)(F)F)cc1C(F)(F)F,980 nM
14,COc1ccc2nc3cc(Cl)ccc3c(N)c2c1,170 nM
15,O=C(O[C@@H]1CN[C@H](C#Cc2cc3c(Nc4ccc5c(cnn5Cc5ccccc5)c4)ncnc3s2)C1)N1CCCC1,420 nM
16,Oc1ccc2ncnc(Nc3ccc(OCc4cccc(F)c4)c(Cl)c3)c2c1,990 nM
17,Cc1ccc(O)c(C(=O)c2cc(C(=O)Nc3ccccc3C)c(=O)n(-c3ccccc3C)c2)c1,780 nM
18,CC(CNC(=O)c1cc2c(Cl)cc(Cl)cc2[nH]1)CNc1cc(=O)c2ccccc2[nH]1 (centres undefined),720 nM
19,CN(C)CCC=C1c2ccccc2Sc2c(O)cc(Cl)cc21,280 nM
20,FC(F)(F)c1ccc(CNC2CCN(CC3CCCCC3)CC2)cc1,930 nM
21,c1ccc(Cn2nnnc2-c2cccc(Nc3ccnc4cc(-c5nccs5)ccc34)c2)cc1,830 nM
22,O=C(Nc1ccc(N2CCCN(Cc3cccc(F)c3)CC2)cc1)c1ccc(F)cc1,840 nM
23,CC(=O)Nc1nc(C(=O)Nc2cccc(-c3ccc(-c4nc5ccccc5[nH]4)cc3)c2)cs1,420 nM
24,CC(C)NCc1cccc(-c2ccc(NC(=O)c3ccc(C#N)cc3)cc2)c1,830 nM
25,O=C(Nc1cccc(-c2ccc(CN3CCCC3)cc2)c1)c1ccc(Cl)cc1,430 nM

row,Compound,IC50
1,CCNc1cc(C(=O)N[C@@H](Cc2ccccc2)[C@H](O)CNC(C)(C)CC(C)(C)C)c(F)c(N2CCCCS2(=O)=O)c1,1010 nM
2,CCNc1cc(C(=O)N[C@@H](Cc2ccccc2)[C@H](O)CNCCc2cccc(C(F)(F)F)c2)cc(N2CCCC2=O)c1,880 nM
3,COc1cc(F)c2ncc(Cl)c(CCN3CCC(NCc4ccc5c(n4)NC(=O)CO5)CC3)c2c1,500 nM
4,O=C(Nc1ccc(S(=O)(=O)NCCCN2CCOCC2)cc1)c1cc(-c2ccccc2)n[nH]1,770 nM
5,c1cc(CNC2Cc3ccc(-c4cccs4)cc3C2)cc(-n2ccnc2)c1 (centres undefined),590 nM
6,O=C(/C=C/c1ccc(Cl)c(Cl)c1)NCCCCCN1C2CCC1CC(c1c[nH]c3ccccc13)C2 (centres undefined),840 nM
7,Oc1ccc(CCNc2nc(NCc3ccc4cc(Cl)ccc4c3)nc(N3CCNCC3)n2)cc1,1020 nM
8,COc1cc(NCCCNC(=O)c2ccc(Cl)c(Cl)c2)nc2ccccc12,140 nM
9,COC(=O)Cn1c(C2CCN(CC3CCN(C(=O)/C=C/c4ccc(Cl)c(Cl)c4)CC3)CC2)nc2ccccc21,1200 nM
10,C/C=C1\CN2CC[C@H]1C[C@@H]2[C@@H](O)c1ccnc2ccc(O)cc12,250 nM
11,Nc1nc(N)c2cc(S(=O)(=O)c3ccc4ccccc4c3)ccc2n1,40 nM
12,CC(=O)N[C@H](C(=O)Nc1ccc(-c2cccc(-c3nc4c(C)cccc4[nH]3)c2)cc1)C(C)C,1090 nM
13,CO/C(=C\C=C\c1cc2cc(Cl)c(Cl)cc2[nH]1)C(=O)NCCCN1CCN(c2ccncc2)CC1,730 nM
14,O=C(/C=C/c1ccc(Cl)c(Cl)c1)N1CCC(C(O)CN2CCC(c3c[nH]c4ccccc34)CC2)CC1 (centres undefined),860 nM
15,CCCCc1cc(N2CCC(NC(C)=O)C2)nc(Nc2ccc(C)cc2)n1 (centres undefined),870 nM
16,CC(C)[C@@H](NC(=O)NC1CCC(CCN2[C@@H]3CC[C@H]2CC(OC(=O)C(CO)c2ccccc2)C3)CC1)C(O)(c1ccccc1)c1ccccc1 (some centres undefined),810 nM
17,O=C(O)/C=C/c1cccc(F)c1F,100 nM
18,COc1cccc2c1CCN(CCN1CCC(NC(=O)c3ccc(-c4cccc(Cl)c4Cl)cc3)CC1)C2,700 nM
19,N#Cc1cncc(-c2nc3c(N4CCC(Cc5ccccc5)CC4)cccc3n2CCNCc2ccccc2)c1,570 nM
20,CCCCNC(c1ccc(Cl)cc1)C(O)c1ccc(Cl)cc1 (centres undefined),620 nM
21,NC1CCCN(Cc2ccc(-c3ccc(-c4nc5ccc(F)cc5[nH]4)s3)cc2)C1 (centres undefined),180 nM
22,NCCCNc1ccc(-c2ccc(NC(=O)Nc3cc(C(F)(F)F)ccc3F)cc2)cn1,840 nM
23,CCOc1ccc(NC(C)=O)c(O)c1,840 nM
24,O=C(c1cc(-c2cccs2)[nH]n1)N1CCN(S(=O)(=O)c2ccc(Cl)s2)CC1,870 nM
25,O=C(/C=C/c1ccc(Cl)c(Cl)c1)NCCCCCCN1CCCN(C(=O)Nc2cc(Cl)cc(Cl)c2)CC1,780 nM

row,Compound,IC50
1,FC(F)(F)c1cccc(CCNc2nccc(NCc3ccc(Cl)cc3Cl)n2)c1,860 nM
2,Cc1[nH]c2ccc(NS(C)(=O)=O)cc2c1C1CCN(CC2CCN(C(=O)/C=C/c3ccc(Cl)c(Cl)c3)CC2)CC1,680 nM
3,CCCOc1cc(OCCC)cc(-c2cc(=O)c3ccccc3[nH]2)c1,60 nM
4,CCCCNCc1ccc(-c2nc(CN(Cc3ccc(Cl)c(Cl)c3)C(=O)CN(C)C)cs2)cc1,800 nM
5,C=CCOc1ccccc1CNCC(O)c1cccc(C(F)(F)F)c1 (centres undefined),840 nM
6,CCOC(=O)c1ccc(NC(=O)Nc2cccc(-c3cccc(-c4nc5ccc(F)cc5[nH]4)c3)c2)cc1,90 nM
7,Oc1cccc(Nc2ccnc3cc(-c4ccncc4)ccc23)c1,1050 nM
8,Oc1ccc(Cl)cc1Nc1nc(C(F)(F)F)nc2ccccc12,940 nM
9,COc1csc2cc(Br)ccc12,860 nM
10,Cc1[nH]nc2ccc(-c3cc(OC[C@@H](N)Cc4ccccc4)cnc3-c3ccccc3OCc3cccc(F)c3)cc12,1220 nM
11,Oc1cc(Nc2ccnc3cc(-c4cccc(CN5CCOCC5)c4)ccc23)c(F)cc1Cl,210 nM
12,O=C(C=Cc1ccccc1Br)NC1CCC(CN2CCC(c3c[nH]c4ccccc34)CC2)CC1 (centres undefined),740 nM and 690 nM
13,Nc1nc(-c2ccc3c(Nc4ccc(F)c(Cl)c4)ccnc3c2)cs1,870 nM
14,COc1ccc(Nc2ncc3c(-c4cccc(NC(=O)Cc5cccc(O)c5)c4)c[nH]c3n2)cc1OC,700 nM
15,O=C(NC1CCN(CCCc2ccccc2)CC1)c1ccc(-c2cccc(C(F)(F)F)c2)s1,890 nM
16,O=C(Nc1cccc(OC2CCN(Cc3ccccc3)CC2)c1)c1ccc(Cl)c(Cl)c1,720 nM
17,CCc1c(CCNC/C=C/C=C/CNCCc2ccc(OC)c(OC)c2CC)ccc(OC)c1OC,970 nM
18,Nc1ccc2[nH]cc(C3CCN(CC4CCN(C(=O)/C=C/c5ccc(Cl)c(Cl)c5)CC4)CC3)c2n1,700 nM
19,Fc1ccc(Nc2ccnc3cc(-c4cccc(CNCCN5CCOCC5)c4)ccc23)c(Cl)c1,140 nM
20,CC(C)Cn1cc(C2CCN(CCN3CCC(CNC(=O)c4ccc(NC(=O)c5cc(Cl)cc(Cl)c5)cc4)CC3)CC2)c2ccccc21,690 nM
21,COc1cc(NC(=O)C(c2ccc(Cl)cc2)C(C)C)cc(OC)c1OC (centres undefined),530 nM
22,CCCCCc1cc(O)c2c(c1)OC(C)(C)C=C2C1=CCN(Cc2ccsc2)CC1,960 nM
23,O=C(NC1CC1)c1ccc(N2CCCC(COc3ccc4c(c3)CCCC4)C2)nc1 (centres undefined),1080 nM
24,Cc1cc(-c2cccc(CNC3CCN(C)CC3)c2)ccc1S(=O)(=O)NC1CCC1,730 nM
25,COc1ccc(CCNCCCCNCCc2ccc(OC)c3ccccc23)c2ccccc12,450 nM

row,Compound,IC50
1,O=S(=O)(c1cc2ccccc2s1)N(CCC(O)(C(F)(F)F)C(F)(F)F)Cc1cccc(O)c1,750 nM
2,Cn1c(=N)cc(-c2ccc(Br)cc2)c2c(=O)[nH]c(N)nc21,1130 nM
3,COc1ccccc1CCNC(=O)c1cc(Br)cc(N2CCN(c3ccncc3)CC2)c1,1270 nM
4,O=C1COC2(CN1CC1CCN(Cc3ccc(O)c(Cl)c3)C1)c1ccccc1-c1ccccc12 (centres undefined),1060 nM
5,CCCCCc1cc(O)c2c(c1)OC(C)(C)c1ccncc1-2,760 nM
6,C=CCNc1cc(-c2ccccn2)nc(-c2ccccn2)n1,470 nM
7,OC(CNc1ccnc(Nc2cccc(Cl)c2)n1)c1ccc(C(F)(F)F)cc1 (centres undefined),770 nM
8,CCOc1cccc(C(=O)Nc2ccc(-c3nc4ccccc4[nH]3)cc2)c1,1010 nM
9,CC(=O)N(C)c1cccc(C(=O)Nc2cccc(-c3cccc(-c4nc5c(C)cccc5[nH]4)c3)c2)c1,620 nM
10,CNCCCNc1ccnc2cc(Cl)ccc12,60 nM
11,CCCCCCCN1CC[C@@H](CCCc2ccnc3ccc(OCCCCNC(N)=O)cc23)[C@@H](CC)C1,840 nM
12,COc1ccc(NC(=O)C2c3ccccc3C(=O)N(C3CCCC3)C2c2cccs2)cc1OC (centres undefined),1090 nM
13,CCc1nnc2sc(-c3cccc(NC(=O)c4ccc(OC)c(Cl)c4)c3)nn12,1140 nM
14,Cc1cccc2[nH]c(-c3cccc(-c4ccc(NC(=O)CCc5cnc[nH]5)cc4)c3)nc12,300 nM
15,O=C(/C=C/c1ccc(Cl)c(Cl)c1)NC1CCC(CN2CCC(c3cc4ccccc4[nH]3)CC2)CC1 (centres undefined),990 nM
16,CCN(CCCN1CCCCC1)c1cc(C)nc(Nc2cc(C)ccc2C)n1,660 nM
17,CS(=O)(=O)N1CC2(CCN(CCC(NC(=O)Nc3ccccc3)c3ccc(Cl)c(Cl)c3)CC2)c2ccccc21 (centres undefined),820 nM
18,Nc1nc(N)c2c3c(ccc2n1)CCC3,930 nM
19,O=C(CN1CCCC1)Nc1cccc(C(=O)Nc2cccc(C(F)(F)F)c2)c1,510 nM
20,CC1(C)CNCc2cc(NC(=O)/C=C/c3ccc(Cl)cc3)ccc21,1180 nM
21,O=C(/C=C/c1ccc([N+](=O)[O-])cc1)N1CCC(NS(=O)(=O)c2cccc(C(F)(F)F)c2)CC1,850 nM
22,CN1CCC(Oc2ccc(NC(=O)c3ccc4c(=O)n(Cc5ccccc5)cnc4c3)cc2Cl)CC1,950 nM
23,CN1CCC(c2csc3ccc(NC(=O)Nc4ccc(-c5ccncc5)c5ccccc45)cc23)CC1,1020 nM
24,COc1ccc(CNCc2cccc(-c3ccc(-c4nc5ccccc5[nH]4)cc3)c2)cc1,310 nM
